# Measured values as given in paper PMC2965864 (British Journal of Cancer, 2010).
# Where two headings read alike, the source gives them in different places.
# Tests used:
# [1] = Plasma pharmacokinetics of sunitinib, SU012662 and total drug in patients; conditions: human, in vivo
# Description: Pharmacokinetic analysis was carried out in a central laboratory, and pharmacokinetic parameter values were estimated using noncompartmental methods. Human potassium EDTA plasma pharmacokinetic samples were analysed for sunitinib and SU012662 and total drug (sunitinib plus SU012662) concentrations at BASi (West Lafayette, IN, USA) with the use of a validated, sensitive, and specific liquid chromatographic-tandem mass spectrometric method.
# (§1) In cycle 1, sunitinib administration started on day 2. Both agents were evaluated in combination on cycle 2 day 1; samples were drawn before drug administration and at 1, 1.5, 2, 4, 6, 8, 10, and 24 hours post-dose.
# (§2) Pharmacokinetic parameter values were calculated for each subject by noncompartmental analysis of concentration–time data using WinNonlin version 4.1 (http://pharmacy.ucsf.edu/irc/pdfs/wul_users_guide.pdf). […] Summary descriptives of pharmacokinetic values were presented only for paired observations with respect to each analyte. In the case where the dose for one of the paired observations was different from the other observation, dose correction to the intended dose was performed (correction factor: intended dose/actual dose). Dose correction to the MTD was performed. Individual patient trough plasma concentrations were summarised per cycle and study day. All concentrations that were below the limits of quantitation (BLQ) were set to zero before computation of descriptive statistics (BLQ values were excluded from the calculations of geometric means and the associated 95% confidence intervals).
# (§3) Standard plasma pharmacokinetic parameters were used including the maximum plasma concentration (Cmax), time to Cmax (Tmax), area under the plasma concentration–time curve to the time of the last measurable concentration (AUC0–last) or infinity (AUC0–∞), clearance, and terminal elimination half-life (t1/2).
# [2] = for Patients requiring dose delay / Patients with dose reduction: irinotecan; for Patients requiring dose delay: cycles 1 and 2; for Patients with dose reduction: first two cycles
# Description: Seven days before the start of cycle 1, a single day's dose of sunitinib was administered to allow for the collection of samples for pharmacokinetic analysis.
# In addition, prophylactic use of hematopoietic growth factors to support neutrophil or platelet counts was not recommended in cycle 1, but could be used in subsequent cycles.
# Patients underwent regular physical examinations (usually on day 1 of each treatment cycle), laboratory tests (blood, usually on days 1 and 15 of each cycle, and urinalysis) and 12-lead electrocardiogram (at screening, at steady state level of sunitinib on cycle 2 day 1, and as clinically indicated in subsequent cycles). […] Response Evaluation Criteria for Solid Tumors version 1.0 ([Therasse et al 2000]) was used, requiring repeat imaging studies ⩾4 weeks after the initial documentation of response.
# [3] = Plasma pharmacokinetics of irinotecan and SN-38 in patients; conditions: for Tlast: median; for Tmax: median (range), n=18–20 paired
# Description: as §1, §2, §3
# [4] = C2D1/C1D1 (sunitinib+irinotecan relative to irinotecan alone), both cohorts combined
structure (smiles),measurement,setting,value
CCNCCNC(=O)c1c(C)[nH]c(/C=C2\C(=O)Nc3ccc(F)cc32)c1C [SU012662],AUC0–last,[1],53.2 (30.9) ng h ml^−1
same,Cmax,[1],3.6 (32.5) ng ml^−1
same,Tlast,[1],24.0 h
same,AUC0–last,[1]; 25 mg,38.6 (54.4) ng h ml^−1
same,Cmax,[1]; 25 mg,2.4 (51.4) ng ml^−1
"CCN(CC)CCNC(=O)c1c(C)[nH]c(/C=C2\C(=O)Nc3ccc(F)cc32)c1C [Sunitinib, sunitinib]",AUC(0-t),[1],0.226 µg·h/mL
same,Cmax,[1],0.013 µg/mL
same,Tlast,[1],24.0 h
same,AUC(0-t),[1]; 25 mg,0.267 µg·h/mL
same,Cmax,[1]; 25 mg,0.0163 µg/mL
same,Maximum tolerated dose (MTD),"[2]; sunitinib days 1–14 of 21-day cycle, with irinotecan 250 mg m^−2 day 1",25 mg per day
CCc1c2c(nc3ccc(O)cc13)-c1cc3c(c(=O)n1C2)COC(=O)[C@]3(O)CC [SN-38],Geometric mean ratio of AUC0–last,[3]; [4],1.20
same,Geometric mean ratio of Cmax,[3]; [4],1.13
same,AUC0–last,"[3]; Irinotecan alone C1D1, mean (CV%)",0.31 (61.7) μg h ml^−1
same,Cmax,"[3]; Irinotecan alone C1D1, mean (CV%), dose corrected to 250 mg m^−2",0.03 (51.4) μg ml^−1
same,Tlast,[3]; Irinotecan alone C1D1,24.0 h
same,Tmax,[3]; Irinotecan alone C1D1,1.1 (1.0–4.2) h
same,AUC0–last,"[3]; Sunitinib+irinotecan C2D1, mean (CV%)",0.36 (52.8) μg h ml^−1
same,Cmax,"[3]; Sunitinib+irinotecan C2D1, mean (CV%), dose corrected to 250 mg m^−2",0.04 (50.0) μg ml^−1
same,Tlast,[3]; Sunitinib+irinotecan C2D1,24.0 h
same,Tmax,[3]; Sunitinib+irinotecan C2D1,1.5 (0.9–4.1) h
"CCc1c2c(nc3ccc(OC(=O)N4CCC(N5CCCCC5)CC4)cc13)-c1cc3c(c(=O)n1C2)COC(=O)[C@]3(O)CC [Irinotecan, irinotecan]",Tlast,[3]; Irinotecan alone C1D1,24.0 h
same,Tlast,[3]; Sunitinib+irinotecan C2D1,24.0 h
same,AUC0–last,"[3]; human, in vivo",16.9 (33.3) μg h ml^−1
same,AUC0–∞,"[3]; human, in vivo",18.1 (34.0) μg h ml^−1
same,Cmax,"[3]; human, in vivo, 250 mg",2.9 µg/mL
same,AUC(0-t),"[3]; human, in vivo, AUC0–last",14.9 µg·h/mL
same,AUC(0-inf),"[3]; human, in vivo, AUC0–∞",15.9 µg·h/mL
same,Maximum tolerated dose (MTD),"[2]; irinotecan day 1 of 21-day cycle, with sunitinib 25 mg per day days 1–14",250 mg m^−2
same,Patients requiring dose delay,[2]; cohort 1,four
same,Patients with dose reduction,[2]; cohort 1,six
same,Patients requiring dose delay,[2]; cohort 2,one
same,Patients with dose reduction,[2]; cohort 2,one
